The values that follow come from patent US8450372B2, “Formulations of suberoylanilide hydroxamic acid and methods for producing same” (Merck Sharp & Dohme Corp., priority 2005, dated 2013).

Data set [1] can be described thus: Dissolution rate of about 100 mg SAHA API before encapsulation (USP Dissolution Apparatus II, 900 mL 2.0% Tween, 37±0.5° C., 100 rpm, HPLC). It is filed as physicochemical. The note with it: for Average SAHA % Dissolved at Time, minutes 0: 0 minutes; for Average SAHA % Dissolved at Time, minutes 10: 10 minutes; for Average SAHA % Dissolved at Time, minutes 15: 15 minutes; for Average SAHA % Dissolved at Time, minutes 20: 20 minutes; for Average SAHA % Dissolved at Time, minutes 30: 30 minutes; for Average SAHA % Dissolved at Time, minutes 45: 45 minutes; for Average SAHA % Dissolved at Time, minutes 60: 60 minutes. On the procedure:
Dissolution rates or profiles in vitro of “about 100 mg of the active ingredient of the pharmaceutical composition” is measured according to the steps and conditions in Example 15. In one embodiment, it is measured by using a USP Dissolution Apparatus II with a helical sinker (Quality Lab Accessories L.L.C., Manville, N.J.) in 900 mL of 2.0% Tween (TCI America, Portland, Oreg.) at a temperature of 37±0.5° C., and paddles rotated at 100 rpm.
The dissolution rate of 100 mg of SAHA API before encapsulation was evaluated using a USP Dissolution Apparatus II (VK 7000, Varian Inc., Cary, N.C.). About 100 mg of SAHA was delivered to vessels containing 900 mL of 2.0% Tween (TCI America, Portland, Oreg.) at a temperature of 37±0.5° C. The paddles were rotated at 100 rpm and samples were pulled at specified time intervals via an autosampler (VK 8000, Varian Inc., Cary, N.C.) equipped with 35 μm full flow filters (Varian Inc., Cary, N.C.).
Subsequently, samples were assayed for SAHA by High Performance Liquid Chromatography (Agilent 1100 series, Agilent Technologies Inc., Wilmington, Del.). The chromatographic analysis was conducted using a Phenomenex Luna C8 (2) (100×4.6 mm) 5 μm particle size column, a mobile phase of 1:1 methanol/0.1% trifluroacetic acid (Reagent Grade, Fisher), and a detection wavelength of 242 nm.

A short description of data set [2]: Phase I study: safety and tolerability of oral vorinostat 400 mg q.d. It is filed as in vivo, human. The note with it: short-term administration, patients with advanced cancer. The procedure:
(§1) This Phase I study conducted in advanced stage cancer patients assessed safety and tolerability of oral vorinostat administered 400 mg q.d., single- and multiple-dose serum pharmacokinetics (PK) of vorinostat, and the effect of a standard high-fat meal on single-dose vorinostat PK. Patients received a single-dose of 400 mg vorinostat on Day 1 (fasted) and Day 5 (after a standard high-fat meal) with 48 hours of postdose PK sampling on both days. Patients then received 400 mg vorinostat once a day on Days 7 through 28 (22 days of dosing). On Day 28, vorinostat was administered after a standard high-fat meal with PK sampling for 24 hrs postdose. Of 23 patients enrolled, 23 were evaluable for Day 1 PK, 20 for Day 5 PK, and 14 for Day 28 PK. The apparent t1/2 of vorinostat was short.

A short description of data set [3]: Phase I study: single- and multiple-dose serum pharmacokinetics of oral vorinostat 400 mg, fasted and after high-fat meal. It is filed as in vivo, human. To be noted: for fe (fraction of dose excreted unchanged in urine): arithmetic mean; for Tmax: median; for AUC(0-t): read-out: AUC0-24 hr. On the procedure: as §1
Table 22: PK Parameters of Vorinostat Following Single and Multiple Doses of Vorinostat 400 mg Daily

Data set [4] in a line: Solubility of SAHA raw material (physical and chemical properties of raw materials). It is filed as physicochemical. The note with it: water. An excerpt: Table 10 summarizes the physical properties of the raw materials in the capsule.
[5] abbreviates: 400 mg single oral dose, high-fat meal vs fasted.
Setting [6] is: single dose fed/single dose fasted, 400 mg.

Where two headings read alike, the source gives them in different places. Marks after values point to notes of the source that are not given here.

Take `O=C(CCCCCCC(=O)Nc1ccccc1)NO` [1008D, suberoylanilide hydroxamic acid]: in data set [1], the “Average SAHA % Dissolved at Time, minutes 0” value is listed as 0.0%; the “Average SAHA % Dissolved at Time, minutes 10” value was determined as 26.8%; the “Average SAHA % Dissolved at Time, minutes 15” value was determined as 34.8%; the “Average SAHA % Dissolved at Time, minutes 20” value was found to be 41.5%. In data set [1], the “Average SAHA % Dissolved at Time, minutes 30” value came to 51.3%; the “Average SAHA % Dissolved at Time, minutes 45” value stood at 61.8%; the “Average SAHA % Dissolved at Time, minutes 60” value is given as 69.8%.
For `O=C(CCCCCCC(=O)Nc1ccccc1)NO` [1136-1136-00-001, suberoylanilide hydroxamic acid], in data set [1], the “Average SAHA % Dissolved at Time, minutes 0” value stood at 0.0%; the “Average SAHA % Dissolved at Time, minutes 10” value is on record as 38.2%; the “Average SAHA % Dissolved at Time, minutes 15” value is 48.9%; the “Average SAHA % Dissolved at Time, minutes 20” value was found to be 57.3%. For the same compound, in data set [1], the “Average SAHA % Dissolved at Time, minutes 30” value was 69.3%; the “Average SAHA % Dissolved at Time, minutes 45” value was 80.6%; the “Average SAHA % Dissolved at Time, minutes 60” value was found to be 87.7%.
For the compound `O=C(CCCCCCC(=O)Nc1ccccc1)NO` [1376-C-RO-02, suberoylanilide hydroxamic acid], in data set [1], the “Average SAHA % Dissolved at Time, minutes 0” value was 0.0%; the “Average SAHA % Dissolved at Time, minutes 10” value is listed as 31.1%; the “Average SAHA % Dissolved at Time, minutes 15” value is on record as 39.7%; the “Average SAHA % Dissolved at Time, minutes 20” value was 47.1%. Also, in data set [1], the “Average SAHA % Dissolved at Time, minutes 30” value is 58.3%; the “Average SAHA % Dissolved at Time, minutes 45” value is 70.1%; the “Average SAHA % Dissolved at Time, minutes 60” value is 78.3%.
With `O=C(CCCCCCC(=O)Nc1ccccc1)NO` [vorinostat, N-hydroxy-N′-phenyloctanediamide], the tolerability result in data set [2] is “generally well tolerated”. For the same compound, the “Accumulation ratio: AUC0-24 hr multiple dose fed/AUC0-24 hr single dose fed (GMR)” value in data set [3] (400 mg daily) was 1.21. Further, the “Linearity ratio: AUC0-24 hr multiple dose fed/AUC0-∞ single dose fed (GMR)” value in data set [3] (400 mg daily) is given as 1.23. The “fe (fraction of dose excreted unchanged in urine)” value in data set [3] (400 mg oral, multiple doses (once daily for 22 days), fed, n = 12) is recorded as 0.0037; in data set [3] (400 mg oral, single dose, fasted, n = 22), 0.0021; in data set [3] (400 mg oral, single dose, fed, n = 21), 0.0030. The compound further gave a t1/2 in data set [3] (400 mg oral, multiple doses (once daily for 22 days), fed, harmonic mean) of 1.34 h. Besides, the Cmax (commonly the highest concentration seen after dosing) in data set [3] (400 mg oral, multiple doses (once daily for 22 days), fed, serum, geometric mean) worked out at 1130 nM; in data set [3] (human, serum, po, 400 mg, 400 mg oral, single dose, fasted, geometric mean) it was 1120 nM; in data set [3] (human, serum, po, 400 mg, 400 mg oral, single dose, fed, geometric mean), 1020 nM. The Tmax (in general, the time from dosing to the highest level) in data set [3] (400 mg oral, single dose, fasted) is 1.50 h; in data set [3] (human, serum, po, 400 mg, 400 mg oral, multiple doses (once daily for 22 days), fed, read-out: Tmax), 4.21 h; in data set [3] (human, serum, po, 400 mg, 400 mg oral, single dose, fed, read-out: Tmax), 4 h. The “AUC0-∞” value in data set [3] (400 mg oral, single dose, fed (high-fat meal), serum, geometric mean) came out at 5.33 µM·h. Also, in data set [3] (400 mg oral, single dose, fed, serum, geometric mean), the AUC0-24 hr turned out to be 5.33 µM·h. The “extent of absorption, effect of high-fat meal” value in data set [3] (setting [5]) is reported as “small increase”. Besides, the “rate of absorption, effect of high-fat meal” value in data set [3] (setting [5]) is “modest decrease”. The “apparent t1/2” value in data set [3] (advanced cancer patients, 400 mg oral, serum) is recorded as “short”. The “Tmax, effect of high-fat meal” value in data set [3] (fed state, 400 mg oral) was “delayed”. Besides, in data set [3] (fed state, most subjects, 400 mg oral), the “lag time before detectable levels in serum” value is given as “at least 15 minutes”. Moreover, the AUC(0-t) in data set [3] (human, serum, po, 400 mg, 400 mg oral, multiple doses (once daily for 22 days), fed, serum, geometric mean) was 6.46 µM·h; in data set [3] (human, serum, po, 400 mg, 400 mg oral, single dose, fasted, serum, geometric mean), 3.82 µM·h. Besides, the half-life (in general, the time needed for the level to fall by half in the phase considered) was 1.74 h in data set [3] (human, serum, po, 400 mg, 400 mg oral, single dose, fasted, harmonic mean) and 1.44 h in data set [3] (human, serum, po, 400 mg, 400 mg oral, single dose, fed, harmonic mean). Also, in data set [3] (human, 400 mg oral, single dose, fasted, serum, geometric mean), the AUC(0-inf) – broadly, total exposure, with the tail of the curve extrapolated – was 3.87 µM·h. Besides, in data set [3] (multiple-dose administration, 400 mg once a day, serum), the Trough concentrations result is given as “generally below the limit of quantification”. The “AUC0-∞ GMR (geometric mean ratio)” value in data set [3] (setting [6]) is listed as 1.38^§. For the same compound, in data set [3] (setting [6]), the “Cmax GMR (geometric mean ratio)” value was 0.91^§. The solubility (usually the concentration that dissolves in the medium under given conditions) in data set [4] is less than 100 µg/mL.
As for `O=C(CCCCCCC(=O)Nc1ccccc1)NO` [1007D, suberoylanilide hydroxamic acid], in data set [1], the “Average SAHA % Dissolved at Time, minutes 0” value is listed as 0.0%; the “Average SAHA % Dissolved at Time, minutes 10” value amounted to 37.8%; the “Average SAHA % Dissolved at Time, minutes 15” value is recorded as 46.1%; the “Average SAHA % Dissolved at Time, minutes 20” value is on record as 52.1%. For the same compound, in data set [1], the “Average SAHA % Dissolved at Time, minutes 30” value was determined as 61.9%; the “Average SAHA % Dissolved at Time, minutes 45” value was 71.8%; the “Average SAHA % Dissolved at Time, minutes 60” value stood at 79.3%.
